US20240158425A1, “MODIFIED ADENINES” (NUCLERA LTD, priority 2021, published 2024)

Assays:
Format in all cases: physicochemical
[1] = Stability of 8-aza-adenosine and 2′-deoxyadenosine in NDS buffer, LC/MS; conditions: for Reaction in NDS buffer (products formed; deaminated nucleoside): LC/MS
Experimental: A solution of NDS made up from sodium nitrite, sodium acetate pH 5.5) and titrated to pH 5.5 with 10 M NaOH was obtained (2 mL).
1 mL aliquots of this solution were added to 8-aza-2′-dA (0.5 mg) and 2′-dA (0.5 mg, as a control to compare how additional N atom at 8 position of nucleobase affects reactivity NH2—C6 group with NDS) and analysed at intervals using LC/MS.

[2] = Stability of 2-halogenated 2′-deoxyadenosines and 2′-deoxyadenosine in NDS buffer (sodium nitrite, pH 5.5), LC/MS; conditions: for Reaction in NDS buffer (products formed; deaminated nucleoside): LC/MS
Experimental: (§1) Analytical LC/MS was performed on the Agilent 1100 Series system. Nucleosides were analysed using gradient of acetonitrile in 20 mM NH4OAc, pH 4.5. The 1 M stock solution of NH4OAc, pH 4.5 was prepared by dissolving NH4OAc (g) in H2O and adjusted to pH 4.5 with acetic acid. This was further diluted with water to the concentrations required for the chromatography.
(§2) Column: Ascentis Express C18 15×4.6 mm, 5 μm; Column temperature 30° C., Flow rate 1 mL/min, UV detection 254 nm.
2 M sodium acetate pH 5.5 buffer was made from sodium acetate trihydrate (2.72 g) made up to 9.5 mL with water, then titrated to pH 5.5 with acetic acid, and finally made up to 10 mL. NDS buffer was made from acetate solution (3.934 mL), sodium nitrite (380 mg, 5.5 mmol) and water (3.934 mL), then adjusted to pH 5.5 with 10 M sodium hydroxide (˜1 drop required). 2-chloro-2′-deoxyadenosine (0.5 mg), 2-fluoro-2′-deoxyadenosine (0.5 mg) and 2′-deoxyadenosine (0.5 mg) as a control were respectively placed in three vials and each dissolved in 1 mL solution of NDS buffer. The stability was monitored at intervals using LC/MS.

[3] = Stability in Oxime Removal Solution (1×ORS) buffer, monitored by LC/MS; conditions: 1×ORS buffer (methoxyamine), 24 h at 37 deg C.
Experimental: as §1, §2
Stock solution of ORS buffer (2×) was prepared from methoxyamine hydrochloride (60 mg, 0.71 mmol), water (MilliQ) (200 uL), pH 5.5 sodium acetate (200 uL) and 10 M sodium hydroxide (53.4 uL) and water (1.4 mL). 2-chloro-2′-deoxyadenosine (1 mg) was dissolved in milliQ water (0.5 mL) and 2×ORS (0.5 mL) was added. The resultant solution was incubated at 37 deg C. and the stability was monitored at intervals using LC/MS. […] 2. Stability of 2-fluoro-2′-deoxyadenosine in ORS Buffer
2-fluoro-2′-deoxyadenosine (1 mg) was dissolved in milliQ water (0.5 mL) and 2×ORS (0.5 mL) was added. The resultant solution was incubated at 37 deg C. and the stability was monitored at intervals using LC/MS.

[4] = buffer, 24 h, 0.5 mg/mL, pH 5.5
[5] = buffer, 48 h, 0.5 mg/mL, pH 5.5
[6] = buffer, 120 h, 0.5 mg/mL, pH 5.5

Compound	In (nucleoside peak area %) ([1]; 24 h)	Remaining nucleoside, peak area % ([1]; 24 h) [peak area %]	In (nucleoside peak area %) ([1]; 96 h)	Remaining nucleoside, peak area % ([1]; 96 h) [peak area %]	In (nucleoside peak area %) ([1]; 120 h)	Remaining nucleoside, peak area % ([1]; 120 h) [peak area %]	In (nucleoside peak area %) ([1]; 146 h)	Remaining nucleoside, peak area % ([1]; 146 h) [peak area %]	Reaction in NDS buffer (products formed; deaminated nucleoside) [1]	Reaction in NDS buffer (products formed; deaminated nucleoside) ([2]; NDS buffer)	other results
Nc1ncnc2c1ncn2[C@H]1C[C@H](O)[C@@H](CO)O1 [dA, 2′-deoxyadenosine]	4.545	94.15	4.352	77.6	4.29	73	4.248	70	react in the NDS buffer giving rise to 1 product	react in the NDS buffer giving rise to 1 product	In (remaining nucleoside) [2, 4]: 4.571; Remaining nucleoside [2, 4]: 96.66%; In (remaining nucleoside) [2, 5]: 4.531; Remaining nucleoside [2, 5]: 92.85%; In (remaining nucleoside) [2, 6]: 4.416; Remaining nucleoside [2, 6]: 82.77%
Nc1ncnc2c1nnn2[C@@H]1O[C@H](CO)[C@@H](O)[C@H]1O [8-aza-A, 8-aza-adenosine]	4.592	98.65	4.538	93.49	4.519	91.74	4.5	90	react in the NDS buffer giving rise to 1 product	–	Deamination in NDS buffer, times slower than 2′-dA ([1]; same conditions as 2′-dA): 3.2 ×
Nc1nc(Cl)nc2c1ncn2[C@H]1C[C@H](O)[C@@H](CO)O1 [2-Cl-dA, 2-chloro-2′-deoxyadenosine]	–	–	–	–	–	–	–	–	–	react in the NDS buffer giving rise to 1 product	Stability in 1×ORS buffer (formation of products) [3]: did not lead to any products; In (remaining nucleoside) ([2]; NDS buffer, 24 h): 4.599; Remaining nucleoside ([2]; NDS buffer, 24 h): 99.42%; In (remaining nucleoside) ([2]; NDS buffer, 48 h): 4.592; Remaining nucleoside ([2]; NDS buffer, 48 h): 98.66%; In (remaining nucleoside) ([2]; NDS buffer, 120 h): 4.57; Remaining nucleoside ([2]; NDS buffer, 120 h): 96.54%; Deamination in NDS buffer, times slower than 2′-dA ([2]; NDS buffer, same conditions as 2′-dA): 5.5 ×
